Results on two compounds are retold here after PubChem BioAssay (NCI).

Common to all, as to test: inhibition of tumour cell growth, NCI panel, 48 h
The test system of test [1] is CCRF-CEM leukemia.
Test [2] relates to NCI/ADR-RES ovarian.
The subject of test [3] is COLO 205 colon.
The test system of test [4] is SW-620 colon.
Test [5] concerns HOP-92 NSCLC.
For test [6], the system named is MOLT-4 leukemia.
In test [7] the test system is SF-268 CNS.
Test [8] relates to NCI-H460 lung.
In test [9] the test system is NCI-H522 lung.
The test system of test [10] is HL-60(TB) leukemia.
Test [11] has as its system LOX IMVI melanoma.
In test [12] the test system is RXF 393 renal.
For test [13], the system named is HOP-62 NSCLC.
Test [14] has as its system T-47D breast.
Test [15] deals with DU-145 prostate.
Test [16] deals with SR leukemia.
Test [17] concerns SK-OV-3 ovarian.
Test [18] relates to A498 renal.

The structures appear in SMILES notation.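 Step 1: Grow cells in 96-well plates. Step 2: Expose to compound for 48 hours at 5 concentrations. Step 3: Interpolate endpoints linearly; if unreached, use highest concentration. TGI is the concentration that stops growth completely.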 Bounds are passed on as bounds.

Regarding `CC(C)CNC(=O)CCc1cccc2c1oc1c(CCN)cccc12`, the TGI is 17.6 µM in [1]; 40.3 µM in [2]; 19.7 µM in [3]; 27.5 µM in test [4]; 22.7 µM in test [5]; 30.7 µM in [6]. Besides, the TGI in [7] was found to be 31.2 µM; in [8], 36.9 µM; in [9], 29.6 µM; in test [10], 13.3 µM; in test [11] it was 27.9 µM; in test [12], 31.4 µM. The TGI in test [13] stood at 33.7 µM; in test [14], 37.1 µM; in test [15], 33.8 µM; in test [16], 29 µM; in test [17] it was 31.6 µM; in test [18], 32.3 µM.
For the compound `COc1cc(OC)cc(Oc2nc3ccccc3nc2C(=O)O)c1`, the TGI in [1], in test [2], in test [3], in test [4], in [5] and in test [6] was greater than 100 µM throughout. Further, the TGI in test [7], in [8], in test [9], in test [10], in test [11] and in [12] was greater than 100 µM throughout. The TGI in test [13], in [14], in test [15], in [16], in [17] and in [18] was greater than 100 µM each time.
